Assay results taken from patent US20200087732A1, “IDENTIFICATION OF DRUGS TARGETING NON-GENETIC DRUG TOLERANCE PROGRAMS IN CANCER” (ETH ZURICH, priority 2016, published 2020).

Legend:
Type in all cases: cell-based
[1] = test system: S6K and BAD; assay: Survival signaling by Western blot in A375-P/pTRIPZ cells; details: FIG. 2G, PLX4720 for 48 h
Protocol: (§1) (A) A375-P cells were transfected with 100 nM siRNA targeting SOX2 or a negative control siRNA. Cells were then treated with PLX4720 (BRAFi) or DMSO for 48 h. 2 h before harvesting, cells were pulsed with 3 uM EdU to label cycling cells. EdU-positive cells were detected using flow cytometry. […] Representative data is shown. (B) Quantification of experiment (A). For each condition, percentage of cycling cells upon siRNA knockdown of SOX2 was normalized to the negative control siRNA. Data shown represent mean of independent biological triplicates ±SEM. (C) A375-P cells stably transduced with pTRIPZ-SOX2 vector were treated with the indicated concentrations of doxycycline for three days or with 1 μM PLX4720 (PLX) for 24 h. SOX2 overexpression was confirmed by Western blot analysis. Lamin A served as loading control. Individual concentrations were assessed in at least two independent experiments. Representative results are shown. (D) A375-P/pTRIPZ-control or -SOX2 cells were pre-treated with 0 ng/ml (negative control) or with 50 ng/ml doxycycline for 24 h, and subsequently with DMSO or PLX4720 for an additional 48 h. 2 h before harvesting, cells were pulsed with 3 uM EdU to label cycling cells. EdU-positive cells were detected using flow cytometry. […] Cell viability was assessed by PrestoBlue assay and IC50 values were calculated. […] Survival signaling was assessed by Western blot. […]

[2] = test system: SOX2; assay: SOX2 levels by Western blot after MAPKi treatment; details: A375-P cells, indicated times
Protocol: (A) A375-P cells were treated with PLX4720 (BRAFi) or DMSO for 6 h, RNA was isolated and RNA-Seq was performed. […] Differentially expressed genes (DEGs) selected for pathway analysis are represented by red and blue dots depending on the direction of the transcriptional change (red genes are induced upon PLX4720, blue genes are repressed upon PLX4720). (B) Bar graphs showing the five top pathways with significant enrichment of the analyzed DEGs. Longer bars indicate stronger significance. (C) Top deregulated genes upon treatment with PLX4720 (left column). Top genes induced and repressed by PLX4720 are shown in separate lists. (D) Indicated cell lines were treated with 1 μM PLX4720 or 0.01% DMSO (0 h) for the indicated times and the expressional changes of selected genes associated with stemness/EMT were confirmed by qPCR. […] Data shown represent mean of independent biological triplicates ±SEM. (E) Western blot analysis of the same experiment as shown in (D). As key player in the stemness signature, SOX2 levels were assessed. P-ERK1/2 levels served as positive treatment controls. Total ERK1/2 levels served as loading control. (F) A375-P cells were treated with 1 μM PLX4720, 0.5 μM AZD6244 (MEK1/2 inhibitor) or 0.01% DMSO for the indicated times and SOX2 levels were assessed by Western blot analysis. […] (G) A375-P cells were treated with 1 μM PLX4720 (BRAFi), 0.5 μM AZD6244 (MEKi), a combination of both drugs or 0.01% DMSO for the indicated times and SOX2 levels were assessed by Western blot analysis. […] (H) A375-P cells were treated with 1 μM PLX4720 (BRAFi), 0.5 μM AZD6244 (MEKi), a combination of both drugs or 0.01% DMSO for the 24 h and the expressional changes of selected genes associated with stemness/EMT were confirmed by qPCR. […] For all Western blots, individual time points were assessed in at least two independent experiments. Representative data is shown.

[3] = test system: genes associated with stemness/EMT; assay: qPCR of selected genes associated with stemness/EMT in A375-P cells; details: FIG. 1H, 1 μM PLX4720, 0.5 μM AZD6244 or combination of both, 24 h
Protocol: (A) A375-P cells were treated with PLX4720 (BRAFi) or DMSO for 6 h, RNA was isolated and RNA-Seq was performed. […] (B) Bar graphs showing the five top pathways with significant enrichment of the analyzed DEGs. Longer bars indicate stronger significance. […] Data shown represent mean of independent biological triplicates ±SEM. (E) Western blot analysis of the same experiment as shown in (D). As key player in the stemness signature, SOX2 levels were assessed. P-ERK1/2 levels served as positive treatment controls. Total ERK1/2 levels served as loading control. (F) A375-P cells were treated with 1 μM PLX4720, 0.5 μM AZD6244 (MEK1/2 inhibitor) or 0.01% DMSO for the indicated times and SOX2 levels were assessed by Western blot analysis. […] (G) A375-P cells were treated with 1 μM PLX4720 (BRAFi), 0.5 μM AZD6244 (MEKi), a combination of both drugs or 0.01% DMSO for the indicated times and SOX2 levels were assessed by Western blot analysis. […] For all Western blots, individual time points were assessed in at least two independent experiments. Representative data is shown.

[4] = test system: A375-P/pTRIPZ-control or -SOX2 cells; assay: Cell viability by PrestoBlue assay; details: FIG. 2E-F; pTRIPZ-SOX2 cells with 50 ng/ml doxycycline versus 0 ng/ml; serial dilutions of PLX4720 for four days
Protocol: as §1

[5] = FIG. 1F, 1 μM PLX4720 or 0.5 μM AZD6244
[6] = FIG. 1G, 1 μM PLX4720, 0.5 μM AZD6244 or combination of both

Row | SMILES | survival signaling via S6K and BAD (Western blot) [1] | SOX2 levels (Western blot) [2, 5] | SOX2 levels (Western blot) [2, 6] | transcript levels of selected stemness/EMT genes (qPCR) [3] | drug sensitivity (survival curve, cell viability) [4]
1 | CCCS(=O)(=O)Nc1ccc(F)c(C(=O)c2c[nH]c3ncc(Cl)cc23)c1F [PLX4720] | repressed | induce similar SOX2 levels | comparable effects on SOX2 levels | comparable effects on transcript levels | decreased drug sensitivity when SOX2 is overexpressed
2 | Cn1cnc2c(F)c(Nc3ccc(Br)cc3Cl)c(C(=O)NOCCO)cc21 [AZD6244] | – | induce similar SOX2 levels | comparable effects on SOX2 levels | comparable effects on transcript levels | –
